In brackets after ≈: the same amount, converted by molar mass.
Assays:
[1] = tested on: Acinetobacter baumannii; assay: Antimicrobial activity against Acinetobacter baumannii isolate B expressing beta-lactamase OXA-164 isolated from tracheal secretion of patient by Etest
[2] = tested on: Acinetobacter baumannii; assay: Antimicrobial activity against Acinetobacter baumannii isolate L expressing beta-lactamase OXA-58 isolated from tracheal secretion of patient by Etest
[3] = tested on: Acinetobacter baumannii; assay: Antimicrobial activity against Acinetobacter baumannii ATCC 19606 harboring beta-lactamase OXA-164 by Etest; type: functional; conditions: ATCC 19606 = CIP 70.34 = JCM 6841
[4] = tested on: Acinetobacter baumannii; assay: Antimicrobial activity against Acinetobacter baumannii isolate B expressing beta-lactamase OXA-164 isolated from tracheal secretion of patient by vitek 2 system
[5] = tested on: Acinetobacter baumannii; assay: Antimicrobial activity against Acinetobacter baumannii isolate K expressing beta-lactamase OXA-58 isolated from blood culture of patient by vitek 2 system
[6] = tested on: Acinetobacter baumannii; assay: Antimicrobial activity against Acinetobacter baumannii isolate A expressing beta-lactamase OXA-164 isolated from tracheal secretion of patient by Etest
[7] = tested on: Acinetobacter baumannii; assay: Antimicrobial activity against Acinetobacter baumannii isolate K expressing beta-lactamase OXA-58 isolated from blood culture of patient by Etest
[8] = tested on: Acinetobacter baumannii; assay: Antimicrobial activity against Acinetobacter baumannii isolate G expressing beta-lactamase OXA-58 isolated from tracheal secretion of patient by vitek 2 system
[9] = tested on: Acinetobacter baumannii; assay: Antimicrobial activity against Acinetobacter baumannii isolate E expressing beta-lactamase OXA-164 isolated from tracheal secretion of patient by Etest
[10] = tested on: Acinetobacter baumannii; assay: Antimicrobial activity against Acinetobacter baumannii isolate C expressing beta-lactamase OXA-164 isolated from tracheal secretion of patient by vitek 2 system
[11] = tested on: Acinetobacter baumannii; assay: Antimicrobial activity against Acinetobacter baumannii isolate D expressing beta-lactamase OXA-164 isolated from tracheal secretion of patient by vitek 2 system
[12] = tested on: Acinetobacter baumannii; assay: Antimicrobial activity against Acinetobacter baumannii ATCC 19606 harboring beta-lactamase OXA-58 by Etest; type: functional; conditions: ATCC 19606 = CIP 70.34 = JCM 6841
[13] = tested on: Acinetobacter baumannii; assay: Antimicrobial activity against Acinetobacter baumannii isolate G expressing beta-lactamase OXA-58 isolated from tracheal secretion of patient by Etest
[14] = tested on: Escherichia coli; assay: Antimicrobial activity against Escherichia coli NEB 5-alpha harboring beta-lactamase OXA-58 by Etest; type: functional
[15] = tested on: Acinetobacter baumannii; assay: Antimicrobial activity against Acinetobacter baumannii isolate F expressing beta-lactamase OXA-164 isolated from tracheostoma of patient by Etest
[16] = tested on: Acinetobacter baumannii; assay: Antimicrobial activity against Acinetobacter baumannii isolate E expressing beta-lactamase OXA-164 isolated from tracheal secretion of patient by vitek 2 system
[17] = tested on: Acinetobacter baumannii; assay: Antimicrobial activity against Acinetobacter baumannii isolate I expressing beta-lactamase OXA-58 isolated from tracheal secretion of patient by vitek 2 system
[18] = tested on: Acinetobacter baumannii; assay: Antimicrobial activity against Acinetobacter baumannii isolate H expressing beta-lactamase OXA-58 isolated from tracheal secretion of patient by Etest
[19] = tested on: Acinetobacter baumannii; assay: Antimicrobial activity against Acinetobacter baumannii isolate J expressing beta-lactamase OXA-58 isolated from bedsore by vitek 2 system
[20] = tested on: Acinetobacter baumannii; assay: Antimicrobial activity against Acinetobacter baumannii isolate H expressing beta-lactamase OXA-58 isolated from tracheal secretion of patient by vitek 2 system
[21] = tested on: Acinetobacter baumannii; assay: Antimicrobial activity against Acinetobacter baumannii isolate L expressing beta-lactamase OXA-58 isolated from tracheal secretion of patient by vitek 2 system
[22] = tested on: Acinetobacter baumannii; assay: Antimicrobial activity against Acinetobacter baumannii isolate I expressing beta-lactamase OXA-58 isolated from tracheal secretion of patient by Etest
[23] = tested on: Acinetobacter baumannii; assay: Antimicrobial activity against Acinetobacter baumannii isolate M expressing beta-lactamase OXA-58 isolated from tracheal secretion of patient by vitek 2 system
[24] = tested on: Acinetobacter baumannii; assay: Antimicrobial activity against Acinetobacter baumannii isolate J expressing beta-lactamase OXA-58 isolated from bedsore by Etest
[25] = tested on: Acinetobacter baumannii; assay: Antimicrobial activity against Acinetobacter baumannii by vitek 2 system
[26] = tested on: Acinetobacter baumannii; assay: Antimicrobial activity against Acinetobacter baumannii ATCC 17978 harboring beta-lactamase OXA-58 by Etest; type: functional
[27] = tested on: Acinetobacter baumannii; assay: Antimicrobial activity against Acinetobacter baumannii ATCC 17978 harboring plasmid WH1266 by Etest; type: functional
[28] = tested on: Escherichia coli; assay: Antimicrobial activity against Escherichia coli NEB 5-alpha harboring plasmid WH1266 by Etest; type: functional
[29] = tested on: Acinetobacter baumannii; assay: Antimicrobial activity against Acinetobacter baumannii isolate D expressing beta-lactamase OXA-164 isolated from tracheal secretion of patient by Etest
[30] = tested on: Acinetobacter baumannii; assay: Antimicrobial activity against Acinetobacter baumannii isolate A expressing beta-lactamase OXA-164 isolated from tracheal secretion of patient by vitek 2 system
[31] = tested on: Acinetobacter baumannii; assay: Antimicrobial activity against Acinetobacter baumannii isolate F expressing beta-lactamase OXA-164 isolated from tracheostoma of patient by vitek 2 system
[32] = tested on: Acinetobacter baumannii; assay: Antimicrobial activity against Acinetobacter baumannii isolate M expressing beta-lactamase OXA-58 isolated from tracheal secretion of patient by Etest
[33] = tested on: Escherichia coli; assay: Antimicrobial activity against Escherichia coli NEB 5-alpha harboring beta-lactamase OXA-164 by Etest; type: functional
[34] = tested on: Acinetobacter baumannii; assay: Antimicrobial activity against Acinetobacter baumannii ATCC 19606 harboring plasmid WH1266 by Etest; type: functional; conditions: ATCC 19606 = CIP 70.34 = JCM 6841
[35] = tested on: Acinetobacter baumannii; assay: Antimicrobial activity against Acinetobacter baumannii ATCC 17978 harboring beta-lactamase OXA-164 by Etest; type: functional
[36] = tested on: Acinetobacter baumannii; assay: Antimicrobial activity against Acinetobacter baumannii isolate C expressing beta-lactamase OXA-164 isolated from tracheal secretion of patient by Etest

C[C@@H](O)[C@H]1C(=O)N2C(C(=O)O)=C(SCCNC=N)C[C@H]12 [IMIPENEM ANHYDROUS]
MIC [1]: 32 µg/mL (≈ 107 µM)
MIC [2]: ≥ 64 µg/mL
MIC [3]: > 32 µg/mL
MIC [4]: ≥ 16 µg/mL
MIC [5]: ≥ 16 µg/mL
MIC [6]: 32 µg/mL (≈ 107 µM)
MIC [7]: ≥ 64 µg/mL
MIC [8]: ≥ 16 µg/mL
MIC [9]: 32 µg/mL (≈ 107 µM)
MIC [10]: ≥ 16 µg/mL
MIC [11]: ≥ 16 µg/mL
MIC [12]: > 32 µg/mL
MIC [13]: ≥ 64 µg/mL
MIC [14]: 0.5 µg/mL (≈ 1.67 µM)
MIC [15]: 32 µg/mL (≈ 107 µM)
MIC [16]: ≥ 16 µg/mL
MIC [17]: ≥ 16 µg/mL
MIC [18]: ≥ 64 µg/mL
MIC [19]: ≥ 16 µg/mL
MIC [20]: ≥ 16 µg/mL
MIC [21]: ≥ 16 µg/mL
MIC [22]: ≥ 64 µg/mL
MIC [23]: ≥ 16 µg/mL
MIC [24]: ≥ 64 µg/mL
MIC [25]: 8 µg/mL (≈ 26.7 µM)
MIC [26]: > 32 µg/mL
MIC [27]: 0.25 µg/mL (≈ 0.835 µM)
MIC [28]: 0.19 µg/mL (≈ 0.635 µM)
MIC [29]: 32 µg/mL (≈ 107 µM)
MIC [30]: 8 µg/mL (≈ 26.7 µM)
MIC [31]: ≥ 16 µg/mL
MIC [32]: ≥ 64 µg/mL
MIC [33]: 0.25 µg/mL (≈ 0.835 µM)
MIC [34]: 0.125 µg/mL (≈ 0.418 µM)
MIC [35]: > 32 µg/mL
MIC [36]: 32 µg/mL (≈ 107 µM)
